Measured values taken from ChEMBL document CHEMBL2169878 (J Med Chem, 2012).
Active and inactive are the calls of the source. The calls are words filed in the database; no cut-off is given here.

Assays:
[1] = target: T1, Chloroquine resistance transporter (Plasmodium falciparum) (UniProt Q9N623); experiment: Inhibition of chloroquine-sensitive Plasmodium falciparum D10 CRT expressed in Xenopus laevis oocyte assessed as inhibition of [3H]chloroquine uptake at 100 uM measured from 1 to 2 hrs
T1 sequence (whole entry): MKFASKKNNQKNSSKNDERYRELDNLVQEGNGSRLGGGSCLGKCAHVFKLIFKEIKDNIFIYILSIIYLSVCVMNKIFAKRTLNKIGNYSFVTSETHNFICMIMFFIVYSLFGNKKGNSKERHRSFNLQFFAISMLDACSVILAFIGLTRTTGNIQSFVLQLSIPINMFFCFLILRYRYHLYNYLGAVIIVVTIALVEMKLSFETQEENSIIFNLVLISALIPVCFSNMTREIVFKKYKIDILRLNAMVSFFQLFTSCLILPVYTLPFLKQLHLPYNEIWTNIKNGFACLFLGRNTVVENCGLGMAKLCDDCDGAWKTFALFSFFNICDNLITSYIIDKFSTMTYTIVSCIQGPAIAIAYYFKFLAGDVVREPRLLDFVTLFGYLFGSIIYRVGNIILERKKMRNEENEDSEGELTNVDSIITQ

[2] = test system: Salmonella typhimurium; experiment: Mutagenicity against Salmonella typhimurium TA98 assessed as revertants at 2 uM incubated for 90 mins followed by drug washout measured after 2 days relative to positive control; assay type: toxicity, organism-based; conditions: salmonella enterica subsp. enterica serovar typhimurium, 1.5 h
[3] = test system: Plasmodium falciparum; experiment: Antiplasmodial activity against chloroquine-sensitive Plasmodium falciparum NF54 infected in human erythrocytes assessed as inhibition of [3H]hypoxanthine incorporation incubated for 48 hrs prior to [3H]hypoxanthine addition measured after 48 hrs by liquid scintillation counting; assay type: functional, organism-based
[4] = test system: Plasmodium berghei; experiment: Antimalarial activity against Plasmodium berghei ANKA expressing GFP infected in mouse assessed as mean survival days at 30 mg/kg, po administered at 6,[…],[…] and 72 hrs post-infection (reference value: 6 to 7 days); assay type: functional
[5] = test system: Salmonella typhimurium; experiment: Mutagenicity against Salmonella typhimurium TA100 assessed as revertants at 1.5 uM incubated for 90 mins followed by drug washout measured after 2 days relative to positive control; assay type: toxicity, organism-based; conditions: salmonella enterica subsp. enterica serovar typhimurium, 1.5 h
[6] = test system: Plasmodium berghei; experiment: Antimalarial activity against Plasmodium berghei ANKA expressing GFP infected in mouse assessed as mean survival days at 30 mg/kg, po administered 24 hrs post-infection (reference value: 6 to 7 days); assay type: functional
[7] = test system: Plasmodium berghei; experiment: Antimalarial activity against Plasmodium berghei ANKA expressing GFP infected in mouse assessed as cure from infection at 30 mg/kg, po administered at 6,24,48 and 72 hrs post-infection measured on day 30; assay type: functional, organism-based; design: dose 30 mg/kg
[8] = test system: Plasmodium berghei; experiment: Antimalarial activity against Plasmodium berghei ANKA expressing GFP infected in mouse assessed as mean survival days at 50 mg/kg, po administered QD for 3 days (reference value: 6 to 7 days); assay type: functional
[9] = test system: Salmonella typhimurium; experiment: Mutagenicity against Salmonella typhimurium TA100 assessed as revertants at 3 uM incubated for 90 mins followed by drug washout measured after 2 days relative to positive control; assay type: toxicity, organism-based; conditions: salmonella enterica subsp. enterica serovar typhimurium, 1.5 h
[10] = test system: Salmonella typhimurium; experiment: Mutagenicity against Salmonella typhimurium TA98 assessed as revertants at 34 uM incubated for 90 mins followed by drug washout measured after 2 days relative to positive control; assay type: toxicity, organism-based; conditions: salmonella enterica subsp. enterica serovar typhimurium, 1.5 h
[11] = test system: Plasmodium berghei; experiment: Antimalarial activity against Plasmodium berghei ANKA expressing GFP infected in mouse assessed as reduction in parasitemia at 30 mg/kg, po administered 24 hrs post-infection measured 48 hrs post-dosing by flow cytometric analysis; assay type: functional; design: scale not given: the % may be the effect or the level left
[12] = test system: Plasmodium falciparum; experiment: Antiplasmodial activity against chloroquine-resistant Plasmodium falciparum W2 infected in human RBC after 72 hrs by parasite lactate dehydrogenase assay; assay type: functional, organism-based; conditions: W2, 72 h
[13] = test system: Salmonella typhimurium; experiment: Mutagenicity against Salmonella typhimurium TA100 assessed as revertants at 8 uM incubated for 90 mins followed by drug washout measured after 2 days relative to positive control; assay type: toxicity, organism-based; conditions: salmonella enterica subsp. enterica serovar typhimurium
[14] = test system: Plasmodium berghei; experiment: Antimalarial activity against Plasmodium berghei ANKA expressing GFP infected in mouse assessed as cure from infection at 100 mg/kg, po administered 24 hrs post-infection measured on day 30; assay type: functional, organism-based; design: dose 100 mg/kg
[15] = test system: Plasmodium berghei; experiment: Antimalarial activity against Plasmodium berghei ANKA expressing GFP infected in mouse assessed as reduction in parasitemia at 30 mg/kg, po administered QD for 3 days measured 24 hrs post-final dosing by flow cytometric analysis; assay type: functional; design: scale not given: the % may be the effect or the level left
[16] = test system: Salmonella typhimurium; experiment: Mutagenicity against Salmonella typhimurium TA100 assessed as revertants at 34 uM incubated for 90 mins followed by drug washout measured after 2 days relative to positive control; assay type: toxicity, organism-based; conditions: salmonella enterica subsp. enterica serovar typhimurium
[17] = test system: Salmonella typhimurium; experiment: Mutagenicity against Salmonella typhimurium TA100 assessed as revertants at 17 uM incubated for 90 mins followed by drug washout measured after 2 days relative to positive control; assay type: toxicity, organism-based; conditions: salmonella enterica subsp. enterica serovar typhimurium
[18] = test system: Plasmodium berghei; experiment: Antimalarial activity against Plasmodium berghei ANKA expressing GFP infected in mouse assessed as reduction in parasitemia at 100 mg/kg, po administered 24 hrs post-infection measured 48 hrs post-dosing by flow cytometric analysis; assay type: functional; design: scale not given: the % may be the effect or the level left
[19] = test system: Plasmodium berghei; experiment: Antimalarial activity against Plasmodium berghei ANKA expressing GFP infected in mouse assessed as cure from infection at 30 mg/kg, po administered QD for 3 days measured on day 30; assay type: functional, organism-based; design: dose 30 mg/kg
[20] = test system: Plasmodium berghei; experiment: Antimalarial activity against Plasmodium berghei ANKA expressing GFP infected in mouse assessed as reduction in parasitemia at 50 mg/kg, po administered QD for 3 days measured 24 hrs post-final dosing by flow cytometric analysis; assay type: functional; design: scale not given: the % may be the effect or the level left
[21] = target: Chloroquine resistance transporter (Plasmodium falciparum, UniProt Q9N623); experiment: Inhibition of chloroquine-resistant Plasmodium falciparum Dd2 CRT expressed in Xenopus laevis oocyte assessed as inhibition of [3H]chloroquine uptake measured from 1 to 2 hrs
[22] = Cytotoxicity against human HepG2 cells after 24 hrs by neutral red dye uptake assay; assay type: cell-based; conditions: read-out: TC50
[23] = test system: Plasmodium falciparum; experiment: Antiplasmodial activity against chloroquine-resistant Plasmodium falciparum K1 infected in human erythrocytes assessed as inhibition of [3H]hypoxanthine incorporation incubated for 48 hrs prior to [3H]hypoxanthine addition measured after 48 hrs by liquid scintillation counting; assay type: functional, organism-based
[24] = test system: Plasmodium falciparum; experiment: Resistance ratio of IC50 for chloroquine-resistant Plasmodium falciparum W2 to IC50 for chloroquine-sensitive Plasmodium falciparum D10; assay type: functional
[25] = test system: Plasmodium falciparum; experiment: Antiplasmodial activity against chloroquine-sensitive Plasmodium falciparum D10 infected in human RBC after 72 hrs by parasite lactate dehydrogenase assay; assay type: functional, organism-based; conditions: D10, 72 h
[26] = target: T1, Chloroquine resistance transporter (Plasmodium falciparum); experiment: Inhibition of chloroquine-resistant Plasmodium falciparum Dd2 CRT expressed in Xenopus laevis oocyte assessed as inhibition of [3H]chloroquine uptake at 100 uM measured from 1 to 2 hrs
[27] = test system: Plasmodium falciparum; experiment: Resistance ratio of IC50 for chloroquine-resistant Plasmodium falciparum K1 to IC50 for chloroquine-sensitive Plasmodium falciparum NF54; assay type: functional
[28] = test system: Plasmodium berghei; experiment: Antimalarial activity against Plasmodium berghei ANKA expressing GFP infected in mouse assessed as cure from infection at 50 mg/kg, po administered QD for 3 days measured on day 30; assay type: functional, organism-based; design: dose 50 mg/kg
[29] = test system: Plasmodium berghei; experiment: Antimalarial activity against Plasmodium berghei ANKA expressing GFP infected in mouse assessed as mean survival days at 100 mg/kg, po administered 24 hrs post-infection (reference value: 6 to 7 days); assay type: functional
[30] = test system: Salmonella typhimurium; experiment: Mutagenicity against Salmonella typhimurium TA98 assessed as revertants at 8 uM incubated for 90 mins followed by drug washout measured after 2 days relative to positive control; assay type: toxicity, organism-based; conditions: salmonella enterica subsp. enterica serovar typhimurium, 1.5 h
[31] = test system: Plasmodium berghei; experiment: Antimalarial activity against Plasmodium berghei ANKA expressing GFP infected in mouse assessed as cure from infection at 30 mg/kg, po administered 24 hrs post-infection measured on day 30; assay type: functional, organism-based; design: dose 30 mg/kg
[32] = Cytotoxicity against mouse NIH3T3 cells after 24 hrs by neutral red dye uptake assay; assay type: cell-based; conditions: read-out: TC50
[33] = test system: Salmonella typhimurium; experiment: Mutagenicity against Salmonella typhimurium TA98 assessed as revertants at 17 uM incubated for 90 mins followed by drug washout measured after 2 days relative to positive control; assay type: toxicity, organism-based; conditions: salmonella enterica subsp. enterica serovar typhimurium
[34] = test system: Plasmodium berghei; experiment: Antimalarial activity against Plasmodium berghei ANKA expressing GFP infected in mouse assessed as reduction in parasitemia at 30 mg/kg, po administered at 6,24,48 and 72 hrs post-infection measured 24 hrs post-final dosing by flow cytometric analysis; assay type: functional; design: scale not given: the % may be the effect or the level left
[35] = test system: Salmonella typhimurium; experiment: Mutagenicity against Salmonella typhimurium TA100 assessed as revertants at 1 uM incubated for 90 mins followed by drug washout measured after 2 days relative to positive control; assay type: toxicity, organism-based; conditions: salmonella enterica subsp. enterica serovar typhimurium, 1.5 h
[36] = test system: Plasmodium berghei; experiment: Antimalarial activity against Plasmodium berghei ANKA expressing GFP infected in mouse assessed as mean survival days at 30 mg/kg, po administered QD for 3 days (reference value: 6 to 7 days); assay type: functional
[37] = test system: Salmonella typhimurium; experiment: Mutagenicity against Salmonella typhimurium TA98 assessed as revertants at 1 uM incubated for 90 mins followed by drug washout measured after 2 days relative to positive control; assay type: toxicity, organism-based; conditions: salmonella enterica subsp. enterica serovar typhimurium
[38] = test system: Salmonella typhimurium; experiment: Mutagenicity against Salmonella typhimurium TA98 assessed as revertants at 4 uM incubated for 90 mins followed by drug washout measured after 2 days relative to positive control; assay type: toxicity, organism-based; conditions: salmonella enterica subsp. enterica serovar typhimurium
[39] = test system: Heart; experiment: Cardiotoxicity against Sprague-Dawley rat Langendorff perfused heart assessed as QT time interval at 30 uM by electrophysiological analysis (reference value: 68.51 2.73 ms); assay type: toxicity, tissue-based
[40] = test system: Heart; experiment: Cardiotoxicity against Sprague-Dawley rat Langendorff perfused heart assessed as QT time interval at 10 uM by electrophysiological analysis (reference value: 68.51 2.73 ms); assay type: toxicity, tissue-based

Clc1cccc(C(Nc2ccnc3cc(Cl)ccc23)c2ccc(CN3CCNCC3)cc2)c1 (racemic)
inhibition [1]: inactive
Activity [2]: 7%
IC50 [3]: 19 nM
MSD [4]: 30 days
Activity [5]: 5%
MSD [6]: 24 days
Activity [7]: Active
MSD [8]: 30 days
Activity [9]: 3%
Activity [10]: 4%
Activity [11]: 99.7%
IC50 [12]: 33 nM
Activity [13]: 5%
Activity [14]: Active
Activity [15]: 99.8%
Activity [16]: 2%
Activity [17]: 7%
Activity [18]: 99.6%
Activity [19]: Active
Activity [20]: 99.8%
IC50 [21]: 10500 nM
CC50 at 24 h [22]: < 4000 nM
IC50 [23]: 23 nM
Ratio IC50 [24]: 1.4
IC50 [25]: 25 nM
inhibition [26]: Active
Ratio IC50 [27]: 1.2
Activity [28]: inactive
MSD [29]: 29.6 days
Activity [30]: 16%
Activity [31]: inactive
CC50 at 24 h [32]: 16000 nM
Activity [33]: 11%
Activity [34]: 99.9%
Activity [35]: 6%
MSD [36]: 30 days
Activity [37]: 9%
Activity [38]: 4%

CC(C)(C)c1ccc(C(O)CCCN2CCC(C(O)(c3ccccc3)c3ccccc3)CC2)cc1 (stereo not given) [TERFENADINE]
Time [39]: 125 ms
Time [40]: 99.83 ms
